Reference: ChEMBL document CHEMBL4257508, “The semi-synthesis, biological evaluation and docking analysis of the oxime, hydrazine and hydrazide derivatives of platensimycin” (Medchemcomm, 2018)
≈ marks a conversion by molar mass, not a printed value.

Experiments:
Klebsiella pneumoniae = experiment: Antibacterial activity against Klebsiella pneumoniae after 16 hrs by agar dilution method; format: functional
Escherichia coli = experiment: Antibacterial activity against Escherichia coli after 16 hrs by agar dilution method; format: functional
Staphylococcus aureus [1] = experiment: Antibacterial activity against Staphylococcus aureus ATCC 29213 after 16 hrs by agar dilution method; format: functional; conditions: ATCC 29213, 16 h
Staphylococcus aureus [2] = experiment: Antibacterial activity against methicillin-sensitive Staphylococcus aureus after 16 hrs by agar dilution method; format: functional
Staphylococcus aureus [3] = experiment: Antibacterial activity against methicillin-resistant Staphylococcus aureus after 16 hrs by agar dilution method; format: functional
[4] = Stability of the compound in LB agar after 16 hrs by UPLC analysis; format: physicochemical

MIC (Klebsiella pneumoniae) | MIC (Escherichia coli) | Stability [4] | SMILES | MIC (Staphylococcus aureus [1]) | MIC (Staphylococcus aureus [2]) | MIC (Staphylococcus aureus [3])
> 64 µg/mL | > 64 µg/mL | Stable | CC(C)(C)OC(=O)N/N=C1\C=C[C@]23C[C@H]4C[C@H](O[C@@]4(C)C2)[C@H]3[C@]1(C)CCC(=O)Nc1c(O)ccc(C(=O)O)c1O | – | 16 µg/mL (≈ 28.8 µM) | –
> 64 µg/mL | > 64 µg/mL | – | COc1ccc(O)c(C(=O)N/N=C2\C=C[C@]34C[C@H]5C[C@H](O[C@@]5(C)C3)[C@H]4[C@]2(C)CCC(=O)Nc2c(O)ccc(C(=O)O)c2O)c1 | – | 16 µg/mL (≈ 26.4 µM) | –
> 64 µg/mL | > 64 µg/mL | Stable | C[C@]12C[C@@]34C=C/C(=N\NC(=O)c5ccccc5)[C@@](C)(CCC(=O)Nc5c(O)ccc(C(=O)O)c5O)[C@@H]3[C@H](C[C@@H]1C4)O2 | 32 µg/mL (≈ 57.2 µM) | 32 µg/mL (≈ 57.2 µM) | –
> 64 µg/mL | > 64 µg/mL | – | C[C@]12C[C@@]34C=C/C(=N\NC(N)=O)[C@@](C)(CCC(=O)Nc5c(O)ccc(C(=O)O)c5O)[C@@H]3[C@H](C[C@@H]1C4)O2 | – | 8 µg/mL (≈ 16 µM) | –
> 64 µg/mL | > 64 µg/mL | Stable | C[C@]12C[C@@]34C=C/C(=N\NC(=O)Cc5ccccc5)[C@@](C)(CCC(=O)Nc5c(O)ccc(C(=O)O)c5O)[C@@H]3[C@H](C[C@@H]1C4)O2 | 8 µg/mL (≈ 13.9 µM) | 8 µg/mL (≈ 13.9 µM) | –
> 64 µg/mL | > 64 µg/mL | – | CC(=O)N/N=C1\C=C[C@]23C[C@H]4C[C@H](O[C@@]4(C)C2)[C@H]3[C@]1(C)CCC(=O)Nc1c(O)ccc(C(=O)O)c1O | – | – | –
> 64 µg/mL | > 64 µg/mL | – | CC(C)(C)c1ccc(C(=O)N/N=C2\C=C[C@]34C[C@H]5C[C@H](O[C@@]5(C)C3)[C@H]4[C@]2(C)CCC(=O)Nc2c(O)ccc(C(=O)O)c2O)cc1 | 32 µg/mL (≈ 52 µM) | 16 µg/mL (≈ 26 µM) | –
> 64 µg/mL | > 64 µg/mL | – | C[C@]12C[C@@]34C=C/C(=N\NC(N)=S)[C@@](C)(CCC(=O)Nc5c(O)ccc(C(=O)O)c5O)[C@@H]3[C@H](C[C@@H]1C4)O2 | – | 16 µg/mL (≈ 31.1 µM) | –
> 64 µg/mL | > 64 µg/mL | – | C[C@]12C[C@@]34C=C/C(=N\NC(=O)c5ccc(O)cc5)[C@@](C)(CCC(=O)Nc5c(O)ccc(C(=O)O)c5O)[C@@H]3[C@H](C[C@@H]1C4)O2 | – | – | –

The remaining lines, values behind:

SMILES | MIC (Klebsiella pneumoniae) | MIC (Escherichia coli) | Stability [4] | MIC (Staphylococcus aureus [1]) | MIC (Staphylococcus aureus [2]) | MIC (Staphylococcus aureus [3])
C[C@]12C[C@@]34CCC(=O)[C@@](C)(CCC(=O)Nc5c(O)ccc(C(=O)O)c5O)[C@@H]3[C@H](C[C@@H]1C4)O2 | > 64 µg/mL | > 64 µg/mL | – | 2 µg/mL (≈ 4.51 µM) | 2 µg/mL (≈ 4.51 µM) | 2 µg/mL (≈ 4.51 µM)
C[C@]12C[C@@]34C=CC(=O)[C@@](C)(CCC(=O)Nc5c(O)ccc(C(=O)O)c5O)[C@@H]3[C@H](C[C@@H]1C4)O2 | – | – | – | 0.5 µg/mL (≈ 1.13 µM) | 0.5 µg/mL (≈ 1.13 µM) | 1 µg/mL (≈ 2.27 µM)
C[C@]12C[C@@]34C=C/C(=N\O)[C@@](C)(CCC(=O)Nc5c(O)ccc(C(=O)O)c5O)[C@@H]3[C@H](C[C@@H]1C4)O2 | > 64 µg/mL | > 64 µg/mL | – | 32 µg/mL (≈ 70.1 µM) | 16 µg/mL (≈ 35 µM) | 32 µg/mL (≈ 70.1 µM)
C[C@@]1(CCC(=O)Nc2c(O)ccc(C(=O)O)c2O)[C@H](O)C=C[C@]23C[C@H]4C[C@H](O[C@@]4(C)C2)[C@H]31 | > 64 µg/mL | > 64 µg/mL | – | > 64 µg/mL | > 64 µg/mL | –
CCO/N=C1\C=C[C@]23C[C@H]4C[C@H](O[C@@]4(C)C2)[C@H]3[C@]1(C)CCC(=O)Nc1c(O)ccc(C(=O)O)c1O | > 64 µg/mL | > 64 µg/mL | – | > 64 µg/mL | > 64 µg/mL | –
C[C@]12C[C@]34C[C@H]1C[C@H](O2)[C@H]3[C@](C)(CCC(=O)Nc1c(O)ccc(C(=O)O)c1O)/C(=N/O)C[C@@H]4NO | > 64 µg/mL | > 64 µg/mL | – | 16 µg/mL (≈ 32.7 µM) | 16 µg/mL (≈ 32.7 µM) | 16 µg/mL (≈ 32.7 µM)
CO/N=C1\C=C[C@]23C[C@H]4C[C@H](O[C@@]4(C)C2)[C@H]3[C@]1(C)CCC(=O)Nc1c(O)ccc(C(=O)O)c1O | > 64 µg/mL | > 64 µg/mL | Stable | > 64 µg/mL | > 64 µg/mL | –
C[C@]12C[C@@]34C=C/C(=N\c5ccccc5)[C@@](C)(CCC(=O)Nc5c(O)ccc(C(=O)O)c5O)[C@@H]3[C@H](C[C@@H]1C4)O2 | > 64 µg/mL | > 64 µg/mL | Stable | 2 µg/mL (≈ 3.87 µM) | 1 µg/mL (≈ 1.94 µM) | 2 µg/mL (≈ 3.87 µM)
C[C@]1(CCC(=O)Nc2c(O)ccc(C(=O)O)c2O)[C@@H]2[C@@H]3C[C@@H]4C[C@@]2(CC[C@@H]1O)C[C@]4(C)O3 | > 64 µg/mL | > 64 µg/mL | – | > 64 µg/mL | > 64 µg/mL | –
C[C@@]1(CCC(=O)Nc2c(O)ccc(C(=O)O)c2O)[C@H](O)CC[C@]23C[C@H]4C[C@H](O[C@@]4(C)C2)[C@H]31 | > 64 µg/mL | > 64 µg/mL | – | > 64 µg/mL | > 64 µg/mL | –
C[C@]1(CCC(=O)Nc2c(O)ccc(C(=O)O)c2O)[C@@H]2[C@@H]3C[C@@H]4C[C@@]2(C=C[C@@H]1O)C[C@]4(C)O3 | > 64 µg/mL | > 64 µg/mL | – | > 64 µg/mL | > 64 µg/mL | –
CC(=O)NC[C@H]1CN(c2ccc(N3CCOCC3)c(F)c2)C(=O)O1 [LINEZOLID] | – | – | – | 1 µg/mL (≈ 2.96 µM) | 1 µg/mL (≈ 2.96 µM) | 1 µg/mL (≈ 2.96 µM)
C=C1C[C@@]23C=CC(=O)[C@@](C)(CCC(=O)Nc4c(O)ccc(C(=O)O)c4O)[C@@H]2C[C@@H]1CC3 [PLATENCIN] | – | – | – | 1 µg/mL (≈ 2.35 µM) | 1 µg/mL (≈ 2.35 µM) | 1 µg/mL (≈ 2.35 µM)
